Data from patent publication US8969333B2, “Therapeutic compositions and methods” (The Penn State Research Foundation, priority 2010, dated 2015).

Tests used:
[1] = test system: U2OS human osteosarcoma cells; test: MTT assay of U2OS cancer cell growth inhibition; assay type: cell-based
Protocol: MIT assays are conducted to evaluate activity to inhibit cancer cell growth. U2OS human osteosarcoma cells were treated with individual compounds at different concentrations for 72 hr in 24-well plates. MIT reagent was added to a final concentration of 0.5 mg/ml and further incubated for 4 hr. The yellow-colored MTT was reduced to insoluble purple-colored Formazan in living cells. Culture medium was removed and DMSO was added to dissolve Formazan into solution. The absorbance of the solution was then measured at 570 nm using a Thermo BioMate™ 3 spectrophotometer. Results are shown in FIG. 1 and average and standard deviations are shown (n>=3).
Cells were treated with individual compounds at different concentrations for 72 hr in 24-well plates. MTT reagent was added to a final concentration of 0.5 mg/ml and further incubated for 4 hr. The yellow-colored MTT was reduced to insoluble purple-colored Formazan in living cells. Culture medium was removed and DMSO was added to dissolve Formazan into solution. The absorbance of the solution was then measured at 570 nm using a Thermo BioMate™ 3 spectrophotometer.

U2OS cells = test: Phase contrast microscopy of U2OS cell growth and morphology; assay type: cell-based, human; conditions: 0-16 μM, 24 hours
Protocol: Cell growth and morphology changes of cells treated with compounds of the present invention are analyzed using phase contrast microscopy.
A VistaVision invert microscope (VWR Inc.) equipped with a Spot Insight digital camera (NDS, Inc.) and a 10× phase contrast lens were used to analyze cell growth and morphology in phase contrast microscopy analyses.
In this example, U2OS are treated with […] YW3-56 for 24 hours.

p53 and its target genes [2] = test: RT-qPCR of p53 and its target gene mRNA in liver and spleen of treated nude mice; assay type: in vivo, mouse; conditions: YW3-56 10 mg/kg, 3 months
Protocol: (§1) RNA was extracted using RNeasy Mini Kit (Qiagen) per manufacturer's instructions. 1 μg RNA was reverse transcribed into cDNA using qScript cDNA SuperMix (Quanta Biosciences) per manufacturer's instructions. Quantitative PCR was performed using SYBR Green SuperMix (Quanta Biosciences) in StepOnePlus Real-Time PCR System (Applied Biosystems). FIG. 10 is a graph showing p53 and its target gene expression induced in S180 cells by YW3-56 in a concentration dependent manner.
Expression of p53 and its target genes in mouse liver and spleen after YW3-56 injection at 10 mg/kg body weight once every two days for 3 months.
(§2) FIGS. 11a and 11b show results of the effect of long term YW3-56 treatment in mice. A pair of nude mice is mock injected or injected with YW3-56 for three months. RT-qPCR analyses of p53 and its target gene mRNA levels in control and YW3-56 treated mice. […] However, these changes are at low levels and no clear change in liver weight and morphology is observed.

p53 and its target genes [3] = test: RT-qPCR and Western blot of p53 and its target genes in U2OS cells; assay type: cell-based, human
Protocol: Western blot and immunostaining was performed essentially as described in Li, P. et al., Oncogene 29 (21), 3153-3162 (2010). Antibodies used in Western blot were anti-p53 (Sigma), anti-PAD4, anti-p21 (Sigma), anti-PUMA (Calbiochem), anti-SESN2 (Abeam), anti-p70S6K (Cell Signaling), anti-p70S6K-pT389 (Cell Signaling), anti-LC3 (Cell Signaling) and anti-β-actin (Sigma) at appropriate dilutions. Anti-LC3B antibody (Cell Signaling) was used for immunostaining. DNA was stained by the DNA dye Hoechst.
as §1
U2OS and S-180 cells were cultured in Dulbecco modified Eagle medium (DMEM) supplemented with 10% fetal bovine serum and 1% penicillin-streptomycin in a 5% CO2 incubator. U2OS p53-shRNA and U2OS Ctrl-shRNA cells were generated as described in Li, P. et al., Regulation of p53 target gene expression by peptidylarginine deiminase 4. Mol Cell Bial 28 (15), 4745-4758 (2008). Concentrations and duration of YW3-56 treatment were performed as specified in the figures and text. For starvation assay, U2OS cells were first cultured in serum-free DMEM for 16 hr, 10% fetal bovine serum and different concentrations of YW3-56 was then added back and cells were further incubated for 8 hr before further analyses. SESN2 siRNA (Santa Cruz) and GFP siRNA (Dharmacon Inc.) were transfected into U2OS cells using the XtremeGene siRNA transfection reagents (Roche Inc.). Cells were incubated in the presence of the siRNA for 48 hr before adding YW3-56 and further incubated for 8 hr before analyses.
The relative abundance of each gene is compared with β-actin as a reference. Increase in several p53 target genes, such as p21, GADD45, PUMA, OKL38, DRAM, and Sestrin2, is detected after YW3-88 treatment at 12 μM concentration. […] Increase in p21 and PUMA proteins is detected.

S180 tumor = test: Sarcoma S180 cell-derived mouse tumor model; assay type: in vivo; conditions: YW3-56 10 mg/kg i.p. daily for 1 week
Source text: A well-established sarcoma S180 cell-derived mouse tumor model is used in this example to determine the effects of PAD4 inhibitors of the present invention on tumor growth in mice.
S180 ascites tumor cells were used to form solid tumors after subcutaneous injection essentially as described in Wang, W. et al., Mol. Biosyst., 2011, 7:766-772. In brief, for initiation of subcutaneous tumors, the cells were obtained as an ascitic form from the tumor-bearing mice, which were serially transplanted once per week. Subcutaneous tumors were implanted by injecting 0.2 ml of 0.9% saline containing 1×10^7 viable tumor cells under the skin on the right armpit. 24 hr after implantation, male ICR mice were randomly divided into experimental groups. The mice in the positive control group were given a daily i.p injection of 2 mg/kg of doxorubicin in 0.2 ml of 0.9% saline for 7 consecutive days. The mice in the negative control group were given a daily i.p injection of 0.2 ml of 0.9% saline for 7 consecutive days. The mice in the treatment groups were given a daily i.p injection of YW3-56 (10 mg/kg), SAHA (5 mg/kg), or a combination of YW3-56 (5 mg/kg) and SAHA (2.5 mg/kg) for 7 consecutive days. The weights of the mice were recorded every day. 24 hr after the last administration, all mice were weighed, euthanized and immediately dissected to obtain and weigh the tumor and vital organs.

[4] = Three-month YW3-56 treatment of nude mice: body and vital organ size; assay type: in vivo, mouse; conditions: 10 mg/kg, three months
Protocol: as §2
A three-month YW3-56 treatment including daily injection of YW3-56 at 10 mg/kg body weight in a pair of nude mice is performed and the size of mouse body and vital organs is not altered after YW3-56 treatment as shown in FIG. 13.

IC50 ([1]; Homo sapiens, read-out: 50% inhibition Cell growth, U2OS cells, MTT, 72 hr): ~2.5 µM
size of mouse body and vital organs [4]: not altered
SMILES: CN(C)c1ccc2cc(C(=O)N[C@@H](CCCNC(=N)CCl)C(=O)NCc3ccccc3)ccc2c1 [YW3-56]
U2OS cell growth in MTT assay ([1]; 20 μM, 3 days): abolished cell growth
U2OS cell density in culture (U2OS cells): decreases U2OS cell density
OKL38 mRNA change in liver (p53 and its target genes [2]; decrease): ~2 fold
PUMA mRNA change in liver (p53 and its target genes [2]; decrease): ~2 fold
p21 mRNA change in liver (p53 and its target genes [2]; increase): ~2 fold
p53 mRNA change in liver (p53 and its target genes [2]; increase): ~2 fold
changes in gene expression in spleen (p53 and its target genes [2]; 2-fold expression change as cut off): not detected
DRAM mRNA (p53 and its target genes [3]; U2OS cells): not altered
p70S6K phosphorylation (p53 and its target genes [3]; U2OS cells with or without p53 depletion): inhibited
sestrin1 and 2 mRNA and Sestrin2 protein levels (p53 and its target genes [3]; U2OS cells, concentration dependent): significantly increased
growth of S180 tumor relative to control group (S180 tumor): ~51.5%
